We go through 10 molecules from ChEMBL document CHEMBL1201862, “PubChem BioAssay data set” (2004).

Some test systems named below: PC-3; SF-268; DU-145; M14; MDA-N; K562; HL-60; SF-295; UACC-62; SNB-19; UO-31; HOP-62; CCRF-CEM; COLO 205; T47D; SF-539; HOP-92; UACC-257; U-251; HCC 2998.
Test in all cases: NCI tumour cell line growth inhibition, 48 h

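Values below derive from 48-hour exposures of cells grown in 96-well plates, with endpoints linearly interpolated between the two concentrations bracketing the appropriate inhibition level. GI50 marks 50% less growth.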 Calls of active or inactive are those of the source. No stated cut-off is given here; in the data, active = GI50 up to about 1.1 µM and inactive = higher.

Turning to `O=C(O)c1nnsc1-c1ccc(-c2snnc2C(=O)O)cc1`, the GI50 with PC-3 was 85.9 µM (inactive); in the assay with SF-268 it was > 100 µM (inactive); in the assay with DU-145 it was > 100 µM (inactive); with M14 it was > 100 µM (inactive); with MDA-N it was > 100 µM (inactive); in the assay with K562, 28.5 µM (inactive). Further, the GI50 in the assay on HL-60 was 37.7 µM (inactive); with SF-295 it was > 100 µM (inactive); in the assay on UACC-62, > 100 µM (inactive); in the assay with SNB-19 it was > 100 µM (inactive); with UO-31 it was > 100 µM (inactive); in the assay with HOP-62, > 100 µM (inactive). Moreover, the GI50 was 2.94 µM (inactive) with CCRF-CEM; > 100 µM (inactive) in the assay with COLO 205; > 100 µM (inactive) in the assay with T47D; 33.7 µM (inactive) in the assay with SF-539; 68.4 µM (inactive) in the assay with HOP-92; > 100 µM (inactive) in the assay on UACC-257. For the same molecule, the GI50 in the assay with U-251 is > 100 µM (inactive).

For the molecule `COc1ccccc1-n1nnc2c(N)nc(N)nc21`, the GI50 with PC-3, with SF-268, with DU-145, in the assay with M14, with MDA-N and with K562 was > 100 µM (inactive) each time. In addition, the GI50 in the assay on HL-60, in the assay on SF-295, in the assay with UACC-62, with SNB-19, in the assay on UO-31 and in the assay with HOP-62 was > 100 µM (inactive) throughout. For the same molecule, the GI50 in the assay on CCRF-CEM, with COLO 205, in the assay with T47D, in the assay on SF-539, in the assay on HOP-92 and with UACC-257 was > 100 µM (inactive) throughout. Besides, the GI50 in the assay with U-251 is > 100 µM (inactive).

In the case of `CC(C#N)NCc1ccc(C(C)NC(C)C#N)cc1` (stereo not given), the GI50 with PC-3, in the assay with HCC 2998, in the assay on SF-268, in the assay with DU-145, with M14 and in the assay with MDA-N was > 100 µM (inactive) throughout. The GI50 in the assay with K562 is > 100 µM (inactive); in the assay with HL-60, > 100 µM (inactive); in the assay with SF-295 it was > 100 µM (inactive); in the assay on UACC-62, > 100 µM (inactive); in the assay with SNB-19, > 100 µM (inactive); with UO-31, 93.1 µM (inactive). For the same molecule, the GI50 in the assay on CCRF-CEM, with COLO 205, in the assay on T47D, in the assay on SF-539, with HOP-92 and in the assay on UACC-257 was > 100 µM (inactive) throughout. The GI50 in the assay with U-251 was > 100 µM (inactive).

With `CC(C)Nc1n[nH]c(=O)n1C(C)C`, the GI50 in the assay with PC-3, in the assay with SF-268, in the assay on DU-145, in the assay with M14, in the assay on MDA-N and in the assay with K562 was > 100 µM (inactive) in each case. The GI50 in the assay on HL-60, with SF-295, with UACC-62, in the assay with SNB-19, with UO-31 and in the assay on HOP-62 was > 100 µM (inactive) throughout. For the same molecule, the GI50 in the assay on CCRF-CEM, in the assay with COLO 205, with T47D, in the assay on SF-539, with HOP-92 and in the assay with UACC-257 was > 100 µM (inactive) throughout. For the same molecule, in the assay with U-251, the GI50 is > 100 µM (inactive).

Take `COc1ccc(C2=C(N)c3cc(OC)ccc3C2=O)cc1`: the GI50 is > 100 µM (inactive) with PC-3; > 100 µM (inactive) with HCC 2998; 47.3 µM (inactive) in the assay with SF-268; > 100 µM (inactive) in the assay with DU-145; > 100 µM (inactive) in the assay with M14; > 100 µM (inactive) with MDA-N. Besides, the GI50 with HL-60 is > 100 µM (inactive); in the assay with SF-295, > 100 µM (inactive); with UACC-62, > 100 µM (inactive); in the assay on SNB-19, 24.5 µM (inactive); with HOP-62, > 100 µM (inactive); with COLO 205 it was > 100 µM (inactive). Moreover, the GI50 with T47D is 36.7 µM (inactive); in the assay on SF-539, > 100 µM (inactive); in the assay on HOP-92, > 100 µM (inactive); in the assay with UACC-257, > 100 µM (inactive); in the assay with U-251 it was > 100 µM (inactive).

Turning to `C/C(=C/CC[C@]1(CO)CC[C@]2(C)[C@H](CC[C@@H]3[C@@]4(C)CC[C@H](OC5OC(CO)C(O)C(O)C5OC5OC(CO)C(O)C(O)C5O)C(C)(C)[C@@H]4CC[C@]32C)[C@H]1O)CO` (stereo not given in full), the GI50 with PC-3, with SF-268, in the assay with DU-145, in the assay with M14, with MDA-N and in the assay on K562 was > 100 µM (inactive) throughout. The GI50 in the assay on HL-60, with SF-295, in the assay with UACC-62, in the assay on SNB-19, in the assay on UO-31 and in the assay on HOP-62 was > 100 µM (inactive) each time. In addition, the GI50 in the assay on CCRF-CEM, with COLO 205, in the assay on T47D, with SF-539, in the assay with HOP-92 and with UACC-257 was > 100 µM (inactive) each time. The GI50 in the assay with U-251 is > 100 µM (inactive).

For the molecule `Cc1ccc(SCC(CSCCO)OCn2cnc3c2N=C(N)NC32OCCO2)cc1` (stereo not given), the GI50 with PC-3, with HCC 2998, with SF-268, with DU-145, with M14 and with MDA-N was > 100 µM (inactive) in each case. Moreover, the GI50 in the assay with K562, in the assay with HL-60, in the assay with SF-295, in the assay on SNB-19, with UO-31 and in the assay on HOP-62 was > 100 µM (inactive) throughout. In addition, the GI50 in the assay on CCRF-CEM, in the assay on T47D, in the assay with SF-539, in the assay on HOP-92, with UACC-257 and in the assay on U-251 was > 100 µM (inactive) each time.

For `Cc1ccc2c(ccc3c[n+]4ccccc4c(C)c32)c1.[O-][Cl+3]([O-])([O-])[O-]`, the GI50 was 0.904 µM (active) in the assay on PC-3; 2.77 µM (inactive) with HCC 2998; 1.29 µM (inactive) in the assay with SF-268; 1.13 µM (inactive) with DU-145; 5.46 µM (inactive) in the assay with M14; > 100 µM (inactive) with MDA-N. Moreover, the GI50 was 4.16 µM (inactive) in the assay with K562; 11.7 µM (inactive) in the assay with HL-60; 1.39 µM (inactive) with SF-295; 0.451 µM (active) in the assay on SNB-19; 20.7 µM (inactive) in the assay on UO-31; 2.44 µM (inactive) in the assay with HOP-62. Moreover, the GI50 with CCRF-CEM was 6.64 µM (inactive); with COLO 205, 1.32 µM (inactive); in the assay with T47D it was 2.47 µM (inactive); in the assay with SF-539, 2.3 µM (inactive); in the assay with HOP-92, 4.1 µM (inactive); in the assay on UACC-257, 1.34 µM (inactive). Further, the GI50 with U-251 is 0.581 µM (active).

Take `S=c1c2cc(I)ccc2nc(S)n1Cc1ccccc1`: the GI50 in the assay on PC-3 is 3.32 µM (inactive); with SF-268, 6.43 µM (inactive); with DU-145 it was 2.71 µM (inactive); in the assay with M14 it was 3.9 µM (inactive); with MDA-N it was 3.83 µM (inactive); with K562 it was 3.54 µM (inactive). The GI50 was 2.33 µM (inactive) with HL-60; 2.99 µM (inactive) in the assay with SF-295; 4.32 µM (inactive) with SNB-19; 3.37 µM (inactive) with UO-31; 2.87 µM (inactive) in the assay on HOP-62; 1.84 µM (inactive) in the assay on CCRF-CEM. The GI50 in the assay on COLO 205 was 10.7 µM (inactive); in the assay with T47D, 1.5 µM (inactive); in the assay with SF-539, 10.3 µM (inactive); with HOP-92 it was 2.69 µM (inactive); with UACC-257 it was 2.44 µM (inactive); with U-251, 3.46 µM (inactive).

With `COc1cc([C@@H]2c3cc4c(cc3C[C@H]3COC(=O)[C@@H]32)OCO4)cc(OC)c1OC` [DESOXYPODOPHYLLOTOXIN], the GI50 in the assay with PC-3 is 0.00353 µM (active); in the assay on HCC 2998 it was 0.00791 µM (active); in the assay on SF-268 it was 0.00843 µM (active); in the assay on DU-145, 0.00273 µM (active); with M14, 0.004 µM (active); with MDA-N it was 0.00222 µM (active). For the same molecule, the GI50 with K562 is 0.0074 µM (active); in the assay with HL-60 it was 0.00713 µM (active); in the assay with SF-295 it was 0.00632 µM (active); in the assay with UACC-62, 0.00912 µM (active); in the assay with SNB-19 it was 0.0092 µM (active); with UO-31, 0.0986 µM (active). For the same molecule, the GI50 in the assay on HOP-62 was 0.0127 µM (active); in the assay with CCRF-CEM it was 0.00865 µM (active); in the assay on T47D it was 0.003 µM (active); in the assay with HOP-92, 0.199 µM (active); in the assay with UACC-257 it was 0.00828 µM (active); in the assay on U-251, 0.00634 µM (active).
